molecular target: T1, human TTK (Homo sapiens, UniProt P33981); test: TTK inhibition assay (indirect ELISA); format: biochemical; conditions: 16 μM ATP (Sigma cat# A7699); read-out: TTK IC50 Range (denoted with an asterisk)
T1 construct: Active TTK was purchased from Invitrogen as an amino terminal GST fusion of full length human TTK; purchased Invitrogen
T1 sequence (P33981 1-857): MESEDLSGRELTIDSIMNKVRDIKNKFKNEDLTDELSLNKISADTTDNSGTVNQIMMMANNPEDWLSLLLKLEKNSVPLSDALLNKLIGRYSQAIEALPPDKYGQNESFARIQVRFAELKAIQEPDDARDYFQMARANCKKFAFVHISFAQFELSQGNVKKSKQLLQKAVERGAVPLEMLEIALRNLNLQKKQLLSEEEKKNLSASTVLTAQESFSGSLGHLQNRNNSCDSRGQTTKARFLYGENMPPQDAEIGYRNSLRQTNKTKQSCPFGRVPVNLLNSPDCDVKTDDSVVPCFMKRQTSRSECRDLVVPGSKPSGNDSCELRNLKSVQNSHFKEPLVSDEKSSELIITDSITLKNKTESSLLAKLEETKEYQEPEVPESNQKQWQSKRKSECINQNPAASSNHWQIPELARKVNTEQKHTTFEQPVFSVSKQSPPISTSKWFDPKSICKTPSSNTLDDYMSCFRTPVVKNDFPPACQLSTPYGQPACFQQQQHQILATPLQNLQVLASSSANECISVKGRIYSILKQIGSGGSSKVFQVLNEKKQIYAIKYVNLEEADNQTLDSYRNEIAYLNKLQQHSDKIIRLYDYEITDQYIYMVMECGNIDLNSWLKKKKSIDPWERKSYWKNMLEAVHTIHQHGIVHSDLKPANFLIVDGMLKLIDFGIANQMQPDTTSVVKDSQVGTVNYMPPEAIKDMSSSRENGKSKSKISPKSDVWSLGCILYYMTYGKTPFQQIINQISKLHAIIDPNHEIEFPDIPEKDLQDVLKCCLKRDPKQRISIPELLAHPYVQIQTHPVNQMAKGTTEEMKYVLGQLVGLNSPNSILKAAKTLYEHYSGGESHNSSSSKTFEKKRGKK
Protocol: Active TTK was purchased from Invitrogen as an amino terminal GST fusion of full length human TTK.
TTK activity was measured using an indirect ELISA detection system.
Compounds were pre-incubated in the presence of enzyme for 5 minutes prior to addition of ATP and the activity remaining quantified using the above described activity assay. The % Inhibition of a compound was determined using the following formula; % Inhibition=100×(1−(experimental value−background value)/(high activity control−background value)). The IC50 value was determined using a non-linear 4 point logistic curve fit (XLfit4, IDBS) with the formula; (A+(B/(1+((x/C)^D)))), where A=background value, B=range, C=inflection point, D=curve fit parameter.

| Compound | IC50 |
| --- | --- |
| O=C(NC1CC1)c1ccc(-c2cnn3c(NCCCN4CCOCC4)nc(Oc4ccccc4)nc23)cc1 [Example C1, N-cyclopropyl-4-(4-((3-morpholinopropyl)amino)-2-phenoxypyrazolo[1,5-a][1,3,5]triazin-8-yl)benzamide] | < 0.1 µM |
| CC(C)NC(=O)c1ccc(-c2cnn3c(NCC4CCOCC4)nc(Oc4ccccc4)nc23)cc1 [Example C2] | 0.1 to 0.5 µM |
| CC(C)C(=O)Nc1ccc(-c2cnn3c(NCC4CCOCC4)nc(Oc4ccccc4)nc23)cc1 [Example C3] | > 0.5 µM |
| CC(C)NC(=O)c1ccc(-c2cnn3c(NCC4CCOCC4)nc(OC4CCCC4)nc23)cc1 [Example C4] | 0.1 to 0.5 µM |
| COCCNc1nc(Oc2ccccc2)nc2c(-c3ccc(C(=O)NC4CC4)cc3)cnn12 [Example C6] | < 0.1 µM |
| CN(c1nc(NCC2CCOCC2)n2ncc(-c3ccc(C(=O)NC4CC4)c(F)c3)c2n1)C1CCCCC1 [Example C15] | < 0.1 µM |
| O=C(NC1CC1)c1ccc(-c2cnn3c(NCC4CCOCC4)nc(N4CCCCC4)nc23)cc1Cl [Example C16] | < 0.1 µM |
| Cc1cc(-c2cnn3c(NCC4CCOCC4)nc(Oc4ccccc4)nc23)ccc1NC(=O)C1CC1 [Example C17] | > 0.5 µM |
| Cc1cc(-c2cnn3c(NCC4CCOCC4)nc(NC4CCCC4)nc23)ccc1NC(=O)C1CC1 [Example C18] | > 0.5 µM |

same assay, conditions: 100 μM ATP; read-out: TTK IC50 Range

| Compound | IC50 |
| --- | --- |
| Cc1cc(-c2cnn3c(NCC4CCOCC4)cc(NC[C@@H]4CCCO4)nc23)ccc1C(=O)NC1CC1 [Example C29, (S)-N-cyclopropyl-2-methyl-4-(7-(((tetrahydro-2H-pyran-4-yl)methyl)amino)-5-(((tetrahydrofuran-2-yl)methyl)amino)pyrazolo[1,5-a]pyrimidin-3-yl)benzamide] | < 0.1 µM |
| Cc1cc(-c2cnn3c(NCC4CCOCC4)cc(Oc4ccncc4)nc23)ccc1C(=O)NC1CC1 [Example C50] | > 0.5 µM |
| Cc1cc(-c2cnn3c(NCCN4CCOCC4)cc(NC4CCOCC4)nc23)ccc1C(=O)NC1CC1 [Example C53] | < 0.1 µM |
| Cc1cc(-c2cnn3c(NCCN4CCOCC4)cc(Nc4ccccc4)nc23)ccc1C(=O)NC1CC1 [Example C60] | < 0.1 µM |
| Cc1cc(-c2cnn3c(NC[C@H]4CCCO4)cc(NC4CCOCC4)nc23)ccc1C(=O)NC1CC1 [Example C63] | < 0.1 µM |
| Cc1cc(-c2cnn3c(NC[C@@H]4CCCO4)cc(NC4CCCC4)nc23)ccc1C(=O)NC1CC1 [Example C64] | < 0.1 µM |
| Cc1cc(-c2cnn3c(NC[C@@H]4CCCO4)cc(NC4CCOCC4)nc23)ccc1C(=O)NC1CC1 [Example C65] | < 0.1 µM |
| Cc1cc(-c2cnn3c(NCC4CCOCC4)cc(N4CCC(O)CC4)nc23)ccc1C(=O)NC1CC1 [Example C67] | < 0.1 µM |
| Cc1cc(-c2cnn3c(NCC4CCOCC4)cc(N4CC(O)C4)nc23)ccc1C(=O)NC1CC1 [Example C69] | 0.1 to 0.5 µM |
| Cc1cc(-c2cnn3c(NCCCn4ccnc4)cc(NC4CCCC4)nc23)ccc1C(=O)NC1CC1 [Example C70] | < 0.1 µM |
| Cc1cc(-c2cnn3c(NCC4CCOCC4)cc(NCc4ccccn4)nc23)ccc1C(=O)NC1CC1 [Example C73] | < 0.1 µM |
| Cc1cc(-c2cnn3c(NCCN4CCOCC4)cc(NCc4cccnc4)nc23)ccc1C(=O)NC1CC1 [Example C75] | < 0.1 µM |
| Cc1cc(-c2cnn3c(NCCN4CCOCC4)cc(NCC4CC4)nc23)ccc1C(=O)NC1CC1 [Example C76] | < 0.1 µM |
| COCCNc1cc(NC2CCCC2)nc2c(-c3ccc(C(=O)NC4CC4)c(C)c3)cnn12 [Example C80] | < 0.1 µM |
| Cc1cc(-c2cnn3c(NCCO)cc(NC4CCCC4)nc23)ccc1C(=O)NC1CC1 [Example C81] | < 0.1 µM |
| CC(=O)N1CCN(c2cc(NCC3CCOCC3)n3ncc(-c4ccc(C(=O)NC5CC5)c(C)c4)c3n2)CC1 [Example C84] | < 0.1 µM |
| Cc1cc(-c2cnn3c(NCCN4CCOCC4)cc(Oc4cccc(S(C)(=O)=O)c4)nc23)ccc1C(=O)NC1CC1 [Example C86] | 0.1 to 0.5 µM |
| Cc1cc(-c2cnn3c(NCCN4CCOCC4)cc(Oc4cccc(N5CCOCC5)c4)nc23)ccc1C(=O)NC1CC1 [Example C91] | < 0.1 µM |
| Cc1cc(-c2cnn3c(NCC4(CO)CCOCC4)cc(NC4CCOCC4)nc23)ccc1C(=O)NC1CC1 [Example C93] | < 0.1 µM |
| Cc1cc(-c2cnn3c(NCCN4CCOCC4)cc(OC4COC4)nc23)ccc1C(=O)NC1CC1 [Example C101] | 0.1 to 0.5 µM |

same assay, conditions: Table 1; 16 μM ATP (asterisk); read-out: TTK IC50 Range

| Compound | IC50 |
| --- | --- |
| Cc1cc(-c2cnn3c(NCC4CCOCC4)nc(N(C)C)nc23)ccc1C(=O)NC1CC1 [Example A1, N-Cyclopropyl-4-(2-(dimethylamino)-4-(((tetrahydro-2H-pyran-4-yl)methyl)amino)pyrazolo[1,5-a][1,3,5]triazin-8-yl)-2-methylbenzamide] | 0.1 to 0.5 µM |
| O=C(NC1CC1)c1ccc(-c2cnn3c(NCCN4CCOCC4)nc(N4CCC(O)CC4)nc23)cc1 [Example A9, N-cyclopropyl-4-(2-(4-hydroxypiperidin-1-yl)-4-((2-morpholinoethyl)amino)pyrazolo[1,5-a][1,3,5]triazin-8-yl)benzamide] | > 0.5 µM |

same assay, conditions: Table 2; 16 μM ATP (asterisk); read-out: TTK IC50 Range

| Compound | IC50 |
| --- | --- |
| COCCNc1cc(Oc2cccnc2)nc2c(-c3ccc(C(=O)NC4CC4)cc3)cnn12 [Example B4, N-cyclopropyl-4-(7-((2-methoxyethyl)amino)-5-(pyridin-3-yloxy)pyrazolo[1,5-a]pyrimidin-3-yl)benzamide] | < 0.1 µM |
| Cc1cc(-c2cnn3c(NCC4CCOCC4)cc(NC4CCCC4)nc23)ccc1NC(=O)C1CC1 [Example B15, N-(4-(5-(cyclopentylamino)-7-(((tetrahydro-2H-pyran-4-yl)methyl)amino)pyrazolo[1,5-a]pyrimidin-3-yl)-2-methylphenyl)cyclopropanecarboxamide] | > 0.5 µM |
| Cc1cc(-c2cnn3c(NCC(C)(C)O)cc(Oc4ccccc4)nc23)ccc1C(=O)NC1CC1 [Example B27, N-cyclopropyl-4-(7-((2-hydroxy-2-methylpropyl)amino)-5-phenoxypyrazolo[1,5-a]pyrimidin-3-yl)-2-methylbenzamide] | < 0.1 µM |
| Cc1cc(-c2cnn3c(NCC(C)(C)O)cc(Oc4cccnc4)nc23)ccc1C(=O)NC1CC1 [Example B28, N-cyclopropyl-4-(7-((2-hydroxy-2-methylpropyl)amino)-5-(pyridin-3-yloxy)pyrazolo[1,5-a]pyrimidin-3-yl)-2-methylbenzamide] | < 0.1 µM |
| CC[C@H](Nc1cc(NCC2CCOCC2)n2ncc(-c3ccc(C(=O)NC4CC4)c(C)c3)c2n1)[C@H](C)O [Example B30, N-cyclopropyl-4-(5-(((2S,3S)-2-hydroxypentan-3-yl)amino)-7-(((tetrahydro-2H-pyran-4-yl)methyl)amino)pyrazolo[1,5-a]pyrimidin-3-yl)-2-methylbenzamide] | < 0.1 µM |
| Cc1cc(-c2cnn3c(NCC(C)(C)O)cc(NC4CCOCC4)nc23)ccc1C(=O)NC1CC1 [Example B32, N-cyclopropyl-4-(7-((2-hydroxy-2-methylpropyl)amino)-5-((tetrahydro-2H-pyran-4-yl)amino)pyrazolo[1,5-a]pyrimidin-3-yl)-2-methylbenzamide] | < 0.1 µM |
| Cc1cc(-c2cnn3c(NC[C@H]4CC[C@H](O)CC4)cc(NC4CCOCC4)nc23)ccc1C(=O)NC1CC1 [Example B33, N-cyclopropyl-4-(7-((((1r,4r)-4-hydroxycyclohexyl)-methyl)amino)-5-((tetrahydro-2H-pyran-4-yl)amino)pyrazolo[1,5-a]pyrimidin-3-yl)-2-methylbenzamide] | < 0.1 µM |
